In ChEMBL document CHEMBL5154808, “Novel β-Hairpin Antimicrobial Peptides Containing the β-Turn Sequence of -RRRF- Having High Cell Selectivity and Low Incidence of Drug Resistance” (J Med Chem, 2022):
Values after ≈ are worked out from the molar mass of the structure shown. Active and inactive are the calls of the source. The rule behind the calls is not given here. Where a SMILES comes first, the peptide text is derived from it. Bridges are numbered along the chain shown (N, C = ends). [ ]: non-standard residue; d: D form. The star is where a group is joined. X1 = CC[C@H](C)CCCCC(=O)*; Dab = NCC[C@H](N)C(=O)O

Columns and labels:
Lipopolysaccharide (LPS) = assay: Binding affinity to LPS (unknown origin) assessed as reduction in bactericidal activity against Escherichia coli ATCC 25922 at 2 times MIC incubated for 2 hrs in presence of 32 ug/ml of LPS by competitive binding assay
[1] = Acute toxicity in Kunming mouse assessed as swollen kidney cells at 25 mg/kg, ip by H and E staining based analysis; type: organism-based; conditions: in vivo
[2] = Acute toxicity in Kunming mouse assessed as increased interalveolar space at 25 mg/kg, ip by H and E staining based analysis; type: organism-based; conditions: in vivo
[3] = Acute toxicity in ip dosed Kunming mouse assessed as lethal dose; type: organism-based; conditions: in vivo
Cell membrane [4] = assay: Induction of inner membrane permeabilization in Escherichia coli ML-35 ATCC 43587 at 1 to 4 times MIC by ONPG based assay; conditions: DDE = dose-dependent effect
Erythrocyte = assay: Hemolytic activity in mouse red blood cells assessed as release of hemoglobin incubated for 1 hr by microplate reader method; type: toxicity, cell-based
[5] = Acute toxicity in Kunming mouse assessed as pulmonary congestion at 25 mg/kg, ip by H and E staining based analysis; type: organism-based; conditions: in vivo
Escherichia coli [6] = assay: Antimicrobial activity against Escherichia coli ATCC 25922 assessed as reduction of bacterial growth incubated for 18 hrs by CLSI protocol based broth microdilution method; type: functional
Bacillus subtilis = assay: Antimicrobial activity against Bacillus subtilis ATCC 23857 assessed as reduction of bacterial growth incubated for 18 hrs by CLSI protocol based broth microdilution method; type: functional
Klebsiella pneumoniae = assay: Antimicrobial activity against Klebsiella pneumoniae ATCC 700603 assessed as reduction of bacterial growth incubated for 18 hrs by CLSI protocol based broth microdilution method; type: functional
Escherichia coli [7] = assay: Antimicrobial activity against Escherichia coli ATCC 25922 assessed as breakage of cell membrane measured after 4 hrs by SEM analysis; type: functional, organism-based
Cell membrane [8] = assay: Induction of cytoplasmic membrane depolarization in […] assessed as increase in fluorescence intensity at 1 to 4 times MIC measured after 1 min by DiSC3-5 dye based fluorescence method; type: subcellular
[9] = test system: Staphylococcus epidermidis; assay: Antimicrobial activity against Staphylococcus epidermidis ATCC 12228 assessed as reduction of bacterial growth incubated for 18 hrs by CLSI protocol based broth microdilution method; type: functional
Pseudomonas aeruginosa = assay: Antimicrobial activity against Pseudomonas aeruginosa ATCC 27853 assessed as reduction of bacterial growth incubated for 18 hrs by CLSI protocol based broth microdilution method; type: functional
Escherichia coli [10] = assay: Synergistic antibacterial activity against rifampicin-resistant Escherichia coli ATCC 25922 assessed as fractional inhibitory concentration index incubated for 18 hrs in presence of rifampicin by checker board assay; type: functional
Escherichia coli [11] = assay: Antimicrobial activity against Escherichia coli ATCC 25922 assessed as swollen cell membrane measured after 0.5 to 2 hrs by SEM analysis; type: functional, organism-based; conditions: time 0.5-2 hrs
Staphylococcus aureus [12] = assay: Induction of drug resistance in Staphylococcus aureus ATCC 25923 assessed as increase in MIC after 10 passages by CLSI protocol based broth microdilution method; type: functional
Staphylococcus aureus [13] = assay: Synergistic antibacterial activity against rifampicin-resistant Staphylococcus aureus ATCC 25923 assessed as fractional inhibitory concentration index incubated for 18 hrs in presence of rifampicin by checker board assay; type: functional
Staphylococcus aureus [14] = assay: Antibacterial activity against Staphylococcus aureus ATCC 25923 infected in BALB/c mouse assessed as reduction in bacterial load in lung at 5 to 10 mg/kg, ip measured after 4 to 12 hrs (reference value: 5.6 x 10^6 CFU/g); type: functional; conditions: dose 5-10 mg/kg, time 4-12 hrs
Cell membrane [15] = assay: Induction of cytoplasmic membrane depolarization in Pseudomonas aeruginosa ATCC 27853 assessed as increase in fluorescence intensity at 1 to 4 times MIC measured after 1 min by DiSC3-5 dye based fluorescence method; type: subcellular
[16] = Acute toxicity in Kunming mouse assessed as distortion of alveolar morphology at 25 mg/kg, ip by H and E staining based analysis; type: organism-based; conditions: in vivo
Staphylococcus aureus [17] = assay: Bactericidal activity against Staphylococcus aureus ATCC 25923 assessed as time required to kill bacteria at 2 times MIC by time-killing assay; type: functional
Cell membrane [18] = assay: Induction of cytoplasmic membrane depolarization in Staphylococcus aureus ATCC 25923 assessed as increase in fluorescence intensity at 4 times MIC measured after 1 min by DiSC3-5 dye based fluorescence method; type: subcellular
Enterococcus faecalis = assay: Antimicrobial activity against Enterococcus faecalis ATCC 29212 assessed as reduction of bacterial growth incubated for 18 hrs by CLSI protocol based broth microdilution method; type: functional
[19] = Acute toxicity in Kunming mouse assessed as respiratory depression in lungs by measuring mortality at 19 to 30 mg/kg, ip within 1 hr; type: organism-based; conditions: in vivo, dose 19-30 mg/kg
[20] = Cytotoxicity against human HK-2 cells assessed as reduction in cell viability incubated for 1 hr by resazurin based microplate reader method; type: toxicity
Staphylococcus aureus [21] = assay: Antimicrobial activity against Staphylococcus aureus ATCC 25923 assessed as reduction of bacterial growth incubated for 18 hrs by CLSI protocol based broth microdilution method; type: functional
Escherichia coli [22] = assay: Synergistic antibacterial activity against kanamycin-resisitant Escherichia coli ATCC 25922 assessed as fractional inhibitory concentration index incubated for 18 hrs in presence of kanamycin by checker board assay; type: functional
Escherichia coli [23] = assay: Synergistic antibacterial activity against meropenem-resistant Escherichia coli ATCC 25922 assessed as fractional inhibitory concentration index incubated for 18 hrs in presence of meropenem by checker board assay; type: functional
Escherichia coli [24] = assay: Antimicrobial activity against kanamycin-resistant Escherichia coli ATCC 25922; type: functional
Staphylococcus aureus [25] = assay: Antimicrobial activity against kanamycin-resistant Staphylococcus aureus ATCC 25923; type: functional
Escherichia coli [26] = assay: Induction of drug resistance in Escherichia coli ATCC 25922 assessed as increase in MIC measured after 20 passages by CLSI protocol based broth microdilution method; type: functional; conditions: time 18.0 hrs
Staphylococcus aureus [27] = assay: Induction of drug resistance in Staphylococcus aureus ATCC 25923 assessed as fold increase in MIC after 5 passages by CLSI protocol based broth microdilution method; type: functional; conditions: time 18.0 hrs

Molecule	HC10 (Erythrocyte)	MIC (Escherichia coli [6])	MIC (Bacillus subtilis)	MIC (Klebsiella pneumoniae)	MIC [9]	MIC (Pseudomonas aeruginosa)	MIC (Enterococcus faecalis)	CC50 at 1 h [20]	MIC (Staphylococcus aureus [21])	other results
CC[C@H](C)CCCCC(=O)N[C@@H](CCN)C(=O)N[C@H](C(=O)N[C@@H](CCN)C(=O)N[C@H]1CCNC(=O)[C@H]([C@@H](C)O)NC(=O)[C@H](CCN)NC(=O)[C@H](CCN)NC(=O)[C@H](CC(C)C)NC(=O)[C@@H](Cc2ccccc2)NC(=O)[C@H](CCN)NC1=O)[C@@H](C)O (X1-[Dab]T[Dab][Dab][Dab][dF]L[Dab][Dab]T; lactam 4-C)	> 256 µM	4 µM (≈ 4.81 µg/mL)	4 µM (≈ 4.81 µg/mL)	4 µM (≈ 4.81 µg/mL)	16 µM (≈ 19.3 µg/mL)	2 µM (≈ 2.41 µg/mL)	128 µM (≈ 154 µg/mL)	> 128 µM	16 µM (≈ 19.3 µg/mL)	Activity (Lipopolysaccharide (LPS)): Active; Activity [1]: Toxic; Activity [2]: Toxic; LD50 [3]: 25.5 mg/kg; Activity (Cell membrane [4]): Dde; Activity [5]: Toxic; Activity (Escherichia coli [7]): Active; Activity (Cell membrane [8]): Active; fractional inhibitory concentration index (FICI) (Escherichia coli [10]): 0.3125; Activity (Escherichia coli [11]): Active; Activity (Staphylococcus aureus [12]): Active; fractional inhibitory concentration index (FICI) (Staphylococcus aureus [13]): 0.75; Activity (Staphylococcus aureus [14]): 0 CFU/g; Activity (Cell membrane [15]): Active; Activity [16]: Toxic; Time (Staphylococcus aureus [17]): 6 h; Activity (Cell membrane [18]): Active; Activity [19]: Toxic; fractional inhibitory concentration index (FICI) (Escherichia coli [22]): 0.25; fractional inhibitory concentration index (FICI) (Escherichia coli [23]): 1.25
NC[C@H]1O[C@H](O[C@H]2[C@H](O)[C@@H](O[C@H]3O[C@H](CO)[C@@H](O)[C@H](N)[C@H]3O)[C@H](N)C[C@@H]2N)[C@H](O)[C@@H](O)[C@@H]1O [KANAMYCIN]	–	4 µM (≈ 1.94 µg/mL)	< 1 µM	64 µM (≈ 31 µg/mL)	> 128 µM	> 128 µM	16 µM (≈ 7.75 µg/mL)	–	< 1 µM	MIC (Escherichia coli [24]): 1020 µM (≈ 496 µg/mL); MIC (Staphylococcus aureus [25]): 1020 µM (≈ 496 µg/mL); Activity (Escherichia coli [26]): Active; fold change (FC) (Staphylococcus aureus [27]): 64
C[C@@H](O)[C@H]1C(=O)N2C(C(=O)O)=C(S[C@@H]3CN[C@H](C(=O)N(C)C)C3)[C@H](C)[C@H]12 [MEROPENEM]	–	< 1 µM	< 1 µM	< 1 µM	< 1 µM	2 µM (≈ 0.767 µg/mL)	16 µM (≈ 6.14 µg/mL)	–	< 1 µM	Activity (Staphylococcus aureus [12]): Active; Activity (Escherichia coli [26]): Active
CO[C@H]1/C=C/O[C@@]2(C)Oc3c(C)c(O)c4c(O)c(c(/C=N/N5CCN(C)CC5)c(O)c4c3C2=O)NC(=O)/C(C)=C\C=C\[C@H](C)[C@H](O)[C@@H](C)[C@@H](O)[C@@H](C)[C@H](OC(C)=O)[C@@H]1C [RIFAMPIN]	–	4 µM (≈ 3.29 µg/mL)	< 1 µM	32 µM (≈ 26.3 µg/mL)	< 1 µM	32 µM (≈ 26.3 µg/mL)	< 1 µM	–	< 1 µM	Activity (Escherichia coli [26]): Active; fold change (FC) (Staphylococcus aureus [27]): 64
H-IRIRIRRRRFRIRIRI-NH2	56 µM	8 µM	2 µM	8 µM	2 µM	4 µM	4 µM	12.3 µM	8 µM	–
H-IRIRRRRFRIRI-NH2	> 256 µM	16 µM	4 µM	16 µM	4 µM	4 µM	16 µM	128 µM	4 µM	–
H-LKLKRRRFKLKL-NH2	> 256 µM	32 µM	4 µM	128 µM	8 µM	64 µM	128 µM	> 128 µM	32 µM	–
H-RIRIRRRFIRIR-NH2	> 256 µM	8 µM	4 µM	64 µM	4 µM	16 µM	32 µM	> 128 µM	8 µM	–
H-VRVRRRRFRVRV-NH2	> 256 µM	32 µM	4 µM	64 µM	8 µM	64 µM	> 128 µM	> 128 µM	16 µM	–
H-WKWKRRRFKWKW-NH2	> 256 µM	4 µM	2 µM	8 µM	4 µM	4 µM	16 µM	120 µM	4 µM	–
H-WKWKWKRRRFKWKWKW-NH2	> 256 µM	8 µM	4 µM	8 µM	4 µM	4 µM	8 µM	10.4 µM	8 µM	–
H-WRWRRRRFRWRW-NH2	> 256 µM	8 µM	2 µM	8 µM	4 µM	8 µM	8 µM	8.7 µM	8 µM	–
